One compound from article PMC12025681, “Repositioning Fluoxetine as a TRPV3 Channel Inhibitor to Alleviate Skin Inflammation and Pruritus” (Current Issues in Molecular Biology, 2025) can be followed below.

One assay addresses T1, human TRPV3 (hTRPV3) (Homo sapiens, UniProt Q8NET8).
T1 sequence (Q8NET8 1-790): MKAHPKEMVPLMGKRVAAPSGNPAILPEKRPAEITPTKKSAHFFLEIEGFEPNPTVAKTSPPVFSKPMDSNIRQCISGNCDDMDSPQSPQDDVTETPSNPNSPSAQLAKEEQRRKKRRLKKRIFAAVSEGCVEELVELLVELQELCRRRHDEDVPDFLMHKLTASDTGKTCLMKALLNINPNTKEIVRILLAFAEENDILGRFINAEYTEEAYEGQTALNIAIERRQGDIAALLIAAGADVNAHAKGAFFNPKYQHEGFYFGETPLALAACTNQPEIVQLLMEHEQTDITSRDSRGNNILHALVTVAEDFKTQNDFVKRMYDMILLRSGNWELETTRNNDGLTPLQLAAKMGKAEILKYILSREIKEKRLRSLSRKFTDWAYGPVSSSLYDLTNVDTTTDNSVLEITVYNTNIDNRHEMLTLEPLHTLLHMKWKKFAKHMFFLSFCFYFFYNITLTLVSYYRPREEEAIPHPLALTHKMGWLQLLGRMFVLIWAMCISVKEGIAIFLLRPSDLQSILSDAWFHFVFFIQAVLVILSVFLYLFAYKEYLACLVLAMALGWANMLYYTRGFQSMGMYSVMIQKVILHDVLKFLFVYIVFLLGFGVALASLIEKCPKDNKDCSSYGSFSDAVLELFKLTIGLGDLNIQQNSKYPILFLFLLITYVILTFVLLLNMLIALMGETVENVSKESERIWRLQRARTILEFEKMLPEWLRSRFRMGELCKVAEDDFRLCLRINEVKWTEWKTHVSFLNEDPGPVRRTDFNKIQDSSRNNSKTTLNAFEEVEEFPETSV
The experiment in a line: whole-cell patch clamp and inside-out single-channel recording in transfected HEK293T cells (2-APB-evoked currents). Format: cell-based. (The patch-clamp technique gives a direct electrical read-out from membranes.)

The next assay deals with TRPM8 (hTRPM8) (Homo sapiens, UniProt Q7Z2W7). In words: whole-cell patch clamp in transfected HEK293T cells (menthol-evoked currents). It counts as cell-based.
Chain of TRPM8 (hTRPM8) (Q7Z2W7 whole entry): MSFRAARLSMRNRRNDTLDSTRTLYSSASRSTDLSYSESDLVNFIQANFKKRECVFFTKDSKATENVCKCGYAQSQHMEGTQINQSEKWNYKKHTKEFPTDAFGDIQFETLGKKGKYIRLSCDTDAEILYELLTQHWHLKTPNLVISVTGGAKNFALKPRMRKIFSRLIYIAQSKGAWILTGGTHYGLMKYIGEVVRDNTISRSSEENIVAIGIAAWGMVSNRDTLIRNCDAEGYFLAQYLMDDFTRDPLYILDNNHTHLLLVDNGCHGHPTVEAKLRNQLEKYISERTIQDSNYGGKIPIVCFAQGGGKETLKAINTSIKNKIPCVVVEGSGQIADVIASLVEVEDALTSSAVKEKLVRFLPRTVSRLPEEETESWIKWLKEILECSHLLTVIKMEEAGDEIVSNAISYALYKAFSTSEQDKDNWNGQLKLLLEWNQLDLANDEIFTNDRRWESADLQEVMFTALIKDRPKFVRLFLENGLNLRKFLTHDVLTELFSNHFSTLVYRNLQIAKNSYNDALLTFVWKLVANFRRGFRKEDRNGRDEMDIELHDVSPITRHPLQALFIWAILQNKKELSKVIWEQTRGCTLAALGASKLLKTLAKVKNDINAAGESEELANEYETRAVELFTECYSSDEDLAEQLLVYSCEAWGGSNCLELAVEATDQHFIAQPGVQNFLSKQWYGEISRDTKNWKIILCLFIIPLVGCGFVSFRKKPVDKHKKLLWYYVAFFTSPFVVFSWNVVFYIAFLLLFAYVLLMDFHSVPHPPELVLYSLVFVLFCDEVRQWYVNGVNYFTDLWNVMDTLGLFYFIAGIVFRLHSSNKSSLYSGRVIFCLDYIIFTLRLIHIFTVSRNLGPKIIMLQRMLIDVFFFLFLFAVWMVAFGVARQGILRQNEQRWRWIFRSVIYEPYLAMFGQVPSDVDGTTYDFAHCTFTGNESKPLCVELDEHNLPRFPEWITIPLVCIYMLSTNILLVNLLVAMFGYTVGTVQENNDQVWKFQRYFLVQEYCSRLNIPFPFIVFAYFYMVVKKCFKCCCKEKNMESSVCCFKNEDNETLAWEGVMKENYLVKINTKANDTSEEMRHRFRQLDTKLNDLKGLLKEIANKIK

As usually defined, the IC50 is the concentration that gives 50% inhibition. A low value points to greater potency in that assay. Take `CNCCC(Oc1ccc(C(F)(F)F)cc1)c1ccccc1` (centres unmarked) [FLX, Fluoxetine]: the IC50 against human TRPV3 (hTRPV3) was found to be 10.2 ± 2.34 µM; against TRPM8 (hTRPM8), 20 ± 3.3 µM.
